Values quoted from earlier work, collected in patent publication US9862652B2, “Microencapsulated nitrification inhibitor composition” (DOW AGROSCIENCES LLC, priority 2014, dated 2018).

## Clc1cccc(C(Cl)(Cl)Cl)n1 [nitrapyrin, 2-chloro-6-(trichloromethyl)pyridine]
Ambient temperature
  nitrapyrin dissolved by Hallcomid M-8-10: about 50 weight percent
Ambient temperature (24° C.)
  nitrapyrin dissolved by Aromatic 100: about 51 weight percent
  nitrapyrin dissolved by cyclohexanone: about 60 wt %
−10° C.
  nitrapyrin dissolved by Aromatic 150: about 29 weight percent
